According to patent US6720346B2, “Thiazole benzamide derivatives and pharmaceutical compositions for inhibiting cell proliferation” (Agouron Pharmaceuticals, Inc., priority 2001, dated 2004):
Counter-ions that a name gives are not always drawn.

How the values were obtained:
[1] = molecular target: T1, human CDK4/cyclin D3 (Homo sapiens, UniProt P11802); assay: Inhibition of CDK4/cyclin D retinoblastoma kinase activity (Ki; % inhibition); type: biochemical; details: for Ki: apparent Ki, CDK4/cyclin D3, Rb substrate
T1 construct: made in house; host or cells: insect cells co-infected with baculovirus vectors
Outline: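 Radiometric filter-binding read-out: Rb residues 386-928 phosphorylated by 5 nM CDK4/cyclin D3(1-264) from baculovirus-infected insect cells, 25 μM ATP, HEPES pH 7.4, 30 °C. Run 20 min, or 60 min for tight-binding inhibitors. Screening at 30 nM theoretical compound; apparent Ki by competitive-inhibition fitting.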

[2] = molecular target: T2, CDK2/cyclin A (Homo sapiens, UniProt P24941); assay: Inhibition of CDK2/cyclin A retinoblastoma kinase activity (Ki; % inhibition); type: biochemical; details: for Ki: apparent Ki, CDK2/cyclin A, Rb substrate
T2 construct: made in house; host or cells: CDK2: insect cells (baculovirus); cyclin A: E. coli
Outline: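 Apparent Ki values came from fitting concentration-dependent activity data to competitive (or competitive tight-binding) models, and % inhibition from single 30 nM screens of library compounds. Activity was measured as ³²P/³³P incorporation from 25 μM ATP into an Rb substrate by 10 or 19 nM CDK2/delta cyclin A at 30 °C over 60–75 min, pH 7.4.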

[3] = system: HCT-116 cell line; assay: Inhibition of cell growth, MTT tetrazolium salt assay; type: cell-based; details: for IC50: Homo sapiens, HCT-116, 120 h, MTT, three to five days
Outline: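 Growth inhibition was read as MTT-formazan absorbance at 540 nm, after 4 h with 0.2 mg/mL MTT. Before that, HCT-116 cells had been exposed 3–5 days at 37 °C to compounds in 0.5% (v/v) DMSO, added 4 h after plating. 50% and 90% inhibitory concentrations were taken from semi-log concentration–inhibition plots versus vehicle controls.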

[4] = HCT-116 cells, 0.25 μM compound

T1 sequence (P11802 whole entry): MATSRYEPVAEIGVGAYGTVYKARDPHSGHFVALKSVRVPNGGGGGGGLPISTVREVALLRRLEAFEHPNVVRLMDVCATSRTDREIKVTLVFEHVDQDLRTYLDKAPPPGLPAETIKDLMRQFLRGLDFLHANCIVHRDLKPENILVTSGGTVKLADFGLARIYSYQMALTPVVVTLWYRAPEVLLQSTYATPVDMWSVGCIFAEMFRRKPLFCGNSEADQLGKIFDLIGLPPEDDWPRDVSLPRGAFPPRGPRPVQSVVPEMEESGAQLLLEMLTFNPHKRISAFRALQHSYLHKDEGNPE
T1 sequence (P30281 1-264 partner limits assumed): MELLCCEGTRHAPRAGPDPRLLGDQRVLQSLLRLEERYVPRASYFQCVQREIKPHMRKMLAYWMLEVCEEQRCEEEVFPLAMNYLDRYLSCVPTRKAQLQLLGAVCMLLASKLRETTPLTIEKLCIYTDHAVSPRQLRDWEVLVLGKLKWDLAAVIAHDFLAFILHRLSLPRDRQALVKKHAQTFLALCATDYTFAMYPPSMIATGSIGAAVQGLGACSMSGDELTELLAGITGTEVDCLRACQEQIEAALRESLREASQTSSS

| Structure (SMILES) | CDK4 % Inhibition at 0.03 μM ([1]; at 0.03 μM) | CDK2 % Inhibition at 0.03 μM ([2]; at 0.03 μM) | HCT-116 % Inhibition at 0.1 μM ([3]; HCT-116, at 0.1 μM) | HCT-116 % Inhibition at 0.25 μM ([3]; HCT-116, at 0.25 μM) | CDK4 % Inhibition at 0.03 μM ([1]; 0.03 μM compound) | CDK2 % Inhibition at 0.03 μM ([2]; 0.03 μM compound) | HCT-116 % Inhibition at 0.1 μM ([3]; HCT-116 cells, 0.1 μM compound) | HCT-116 % Inhibition at 0.25 μM [3, 4] | further results |
| --- | --- | --- | --- | --- | --- | --- | --- | --- | --- |
| CC(CNC(=O)c1ccc(Nc2nc(N)c(C(=O)c3c(F)cccc3F)s2)cc1)c1ccccc1 (stereo not shown) [Example G118] | 21% | 11% | 5% | 48% | – | – | – | – | – |
| COC(=O)c1ccc(NC(=O)c2ccc(Nc3nc(N)c(C(=O)c4c(F)cccc4F)s3)cc2)c(C)c1 [Example G354] | – | – | – | – | 3% | 9% | 31% | 60% | – |
| CN(C)CC(C)(C)NC(=O)c1ccc(Nc2nc(N)c(C(=O)c3c(F)cccc3F)s2)cc1 [Example A61, 4-[4-Amino-5-(2,6-difluoro-benzoyl)-thiazol-2-ylamino]-N-(2-dimethylamino-1,1-dimethyl-ethyl)-benzamide Dihydrochloride] | – | – | – | – | – | – | – | – | Ki [1]: 232 nM; Ki [2]: 37.5 nM; IC50 [3]: 220 nM |
| Nc1ccc(CCNC(=O)c2ccc(Nc3nc(N)c(C(=O)c4c(F)cccc4F)s3)cc2)cc1 [Example G105] | 9% | 3% | 24% | 67% | – | – | – | – | – |
| CCN1CC(NC(=O)c2ccc(Nc3nc(N)c(C(=O)c4c(F)cccc4F)s3)cc2)CN1CC [Example G150] | 25% | 15% | 0% | 57% | – | – | – | – | – |
| CCN(CCCCO)C(=O)c1ccc(Nc2nc(N)c(C(=O)c3c(F)cccc3F)s2)cc1 [Example G385] | – | – | – | – | −1% | 1% | 28% | 50% | – |
| Cc1ccc(CCNC(=O)c2ccc(Nc3nc(N)c(C(=O)c4c(F)cccc4F)s3)cc2)cc1 [Example G111] | 20% | 15% | 0% | 52% | – | – | – | – | – |
| COC(=O)c1ccc(NC(=O)c2ccc(Nc3nc(N)c(C(=O)c4c(F)cccc4F)s3)cc2)cc1OC [Example G220] | – | – | – | – | 12% | 10% | 18% | 54% | – |
| CN(C)C1(CNC(=O)c2ccc(Nc3nc(N)c(C(=O)c4c(F)cccc4F)s3)cc2)CCC1 [Example A78, 4-{[4-Amino-5-(2,6-difluorobenzoyl)-1,3-thiazol-2-yl]amino}-N-{[1-(dimethylamino)cyclobutyl]methyl}benzamide] | – | – | – | – | – | – | – | – | Ki [1]: 8.2 nM; Ki [2]: 110 nM; IC50 [3]: 130 nM |
| C=CCNC(=O)c1ccc(Nc2nc(N)c(C(=O)c3c(F)cccc3F)s2)cc1 [Example G219] | – | – | – | – | 13% | 10% | 8% | 52% | – |
| CC(C)(CNC(=O)c1ccc(Nc2nc(N)c(C(=O)c3c(F)cccc3F)s2)cc1)N1CCCCC1 [Example A52, 4-[4-Amino-5-(2,6-difluoro-benzoyl)-thiazol-2-ylamino]-N-(2-methyl-2-piperidin-1-yl-propyl)-benzamide] | – | – | – | – | – | – | – | – | Ki [1]: 9 nM; Ki [2]: 170 nM; IC50 [3]: 130 nM |
| CN(CCc1ccccn1)C(=O)c1ccc(Nc2nc(N)c(C(=O)c3c(F)cccc3F)s2)cc1 [Example G71] | 16% | 3% | – | 59% | – | – | – | – | – |
| Nc1nc(Nc2ccc(C(=O)NCCc3ccccc3Cl)cc2)sc1C(=O)c1c(F)cccc1F [Example G177] | 23% | 10% | 24% | 45% | – | – | – | – | – |
| CCN(C(=O)c1ccc(Nc2nc(N)c(C(=O)c3c(F)cccc3F)s2)cc1)C1CCCCC1 [Example G312] | – | – | – | – | 5% | −10% | 8% | 58% | – |
